{"source": "patent US20040241755A1", "about": "“Human cell assay to determine effect of sample compounds on Col2 enhancer expression” (Pfizer Inc., priority 2003, published 2004)", "assay_type_in_all_cases": "cell-based, human", "key": {"[1]": {"system": "48 bp Col2a1 enhancer", "experiment": "48 bp Col2a1 enhancer luciferase reporter transfection assay in SW1353 cells", "details": "for relief of cytokine mediated inhibition of enhancer expression by co-treatment: co-treatment with TNFα or IL-1β, SW1353 cells; for effect on Sox9 activity / responsiveness of SW1353 cells transfected with the 48 bp Col2a1 enhancer: concentration not given, data not shown; for reduction of enhancer driven luciferase expression: 10 ng/ml", "description": "Reagents were obtained from Invitrogen unless otherwise noted. SW1353 human chondrosarcoma cells (ATCC #HTB-94) were grown in DMEM 10% FBS 10 ug/ml Gentamicin and passaged (2 times a week) using with 0.25% Trypsin-EDTA.\nCells were plated at ˜10^6 cells per flask into a T-75 in 10 ml growth media or an equivalent based on culture vessel surface area, 24 hours prior to transfection. For each transfection, 24 ul of Transit (PanVera) was diluted into 250 ul OptiMEM and 12 ug of reporter plasmid Col2a1 enhancer construct (48 bp Col2a1, was added. After 15-30 minute incubation, growth media was removed from the cells, and the DNA-transfection reagent complexes diluted to a final volume of 10 ml with OptiMEM and added to the cells. Transfection media was replaced with fresh media after 7 hours. 24 hours post transfection the cells were treated with media alone or indicated factors. Cells were harvested 48 hours post-transfection and luciferase activity measured using the LucLite and the TopCount LSC plate reader (Packard).\nWe analyzed the activity of the 48 bp Col2a1 enhancer construct (48 bp Col2a1) in transfected SW1353 cells. SW1353 cells were transfected with a constant amount of reporter (0.25 ug), with or without increasing amounts of the Sox9 expression construct or empty vector."}, "[2]": {"system": "Sox9 mRNA", "experiment": "Sox9 mRNA expression in SW1353 cells by real time quantitative PCR (TaqMan)", "details": "48 hours, relative to GAPDH", "description": "RNA was prepared from 75 cm dishes using RNeasy Kits with DNAse treatment (Qiagen) according to the manufacturer's protocol except a second application of DNase was used. cDNA was prepared from 10-20 ul of RNA (1-4 ug) using random hexamer primers and PE Biosystems Reverse Transcription reagents. Taqman reactions used 8 ul cDNA and 2× PE Universal PCR Master Mix (PE Biosystems), 900 nM PCR primers and 200 nM FAM-TAMRA probe. Reactions (50 ul) were cycled and quantified using the PE 5700 with standard conditions for 45 cycles. The data was analyzed using GeneAmp5700 software Mix (PE Biosystems), adjusting the threshold to linear range for all samples. The ΔCt is calculated by subtracting normalizer (GAPDH) from corresponding gene-specific values. The ΔΔCt is calculated by subtracting treated ΔCt from control ΔCt. Fold induction is determined by calculating 2^ΔΔCt. Data is reported as % increase over control sample.\nThe effect of chondrocyte growth factors as well as inhibitory cytokines on the expression of Sox9 RNA in SW1353 cells using real time quantitative PCR (TaqMan, P E Applied Biosystems) was determined. Cells were cultured and treated with growth factors or cytokines as described above. After 48 hours cells were harvested and RNA prepared. A custom Sox9 primer probe set was validated by an efficiency plot over several logs and relative Sox 9 expression was quantified relative to GAPDH."}, "[3]": {"system": "IL-8", "experiment": "Induction of IL-8 expression in SW1353 cells", "details": "for stimulation of expression of IL-8: 10 ng/ml", "description": "SW1353 cells were transfected with the 48 bp Col2a1 reporter and then treated with vehicle, TNFα (10 ng/ml) or IL-1β (10 ng/ml) (FIG. 2A).\nThe effect of increasing IL-1β doses on the two response was determined. […] Therefore, SW1353 cells appear to respond to a dynamic range of IL-1β levels with selective functional responses, making them potentially useful in models of both osteoarthritis and rheumatoid diseases."}, "[4]": {"system": "matrix metalloproteases", "experiment": "Stimulation of matrix metalloprotease expression in SW1353 cells", "details": "data not shown"}}, "data": [{"molecule": "FGF-2: pro-chondrogenic fibroblast growth factor", "values": [{"measurement": "relief of cytokine mediated inhibition of enhancer expression by co-treatment", "setting": "[1]", "value": "partially relieved"}, {"measurement": "increase in expression of Sox9 mRNA", "setting": "[2]", "value": "approximately 1.5 fold"}]}, {"molecule": "PTHrP: parathyroid hormone-related peptide", "values": [{"measurement": "effect on Sox9 activity / responsiveness of SW1353 cells transfected with the 48 bp Col2a1 enhancer", "setting": "[1]", "value": "not seen an effect"}]}, {"molecule": "IL-1β: pro-inflammatory cytokine", "values": [{"measurement": "reduction of enhancer driven luciferase expression", "setting": "[1]; transfected SW1353 cells", "value": "~50", "unit": "%"}, {"measurement": "stimulation of Col2 enhancer activity at very low levels", "setting": "[1]; 0.1-1 pg/ml, transfected SW1353 cells", "value": "about 150%"}, {"measurement": "concentration giving maximal inhibition (repression) of Col2 enhancer activity", "setting": "[1]; transfected SW1353 cells", "value": 20, "unit": "pg/mL"}, {"measurement": "decrease in Sox9 expression", "setting": "[2]", "value": 60, "unit": "%"}, {"measurement": "stimulation of expression of IL-8", "setting": "[3]", "value": "stimulate"}, {"measurement": "induction of IL-8", "setting": "[3]; IL-1 concentrations below 20 pg/ml", "value": "not detected"}, {"measurement": "stimulation of expression of matrix metalloproteases", "setting": "[4]", "value": "stimulate"}]}, {"molecule": "TNFα", "values": [{"measurement": "reduction of enhancer driven luciferase expression", "setting": "[1]; transfected SW1353 cells", "value": "approximately 60%"}, {"measurement": "decrease in Sox9 expression", "setting": "[2]", "value": 45, "unit": "%"}, {"measurement": "stimulation of expression of IL-8", "setting": "[3]", "value": "stimulate"}, {"measurement": "stimulation of expression of matrix metalloproteases", "setting": "[4]", "value": "stimulate"}]}, {"molecule": "TGFα: growth factor to which SW1353 cells appear unresponsive", "values": [{"measurement": "effect on Sox9 activity / responsiveness of SW1353 cells transfected with the 48 bp Col2a1 enhancer", "setting": "[1]", "value": "unresponsive"}]}, {"molecule": "FGF-1: pro-chondrogenic fibroblast growth factor", "values": [{"measurement": "relief of cytokine mediated inhibition of enhancer expression by co-treatment", "setting": "[1]", "value": "partially relieved"}, {"measurement": "increase in expression of Sox9 mRNA", "setting": "[2]", "value": "~2", "unit": "fold"}]}, {"molecule": "FGF-7: fibroblast growth factor which signals exclusively through the epithelial-cell restricted FGFRIIIb receptor (protein, UniProt P21781 32-194, looked up) Fibroblast growth factor 7: CNDMTPEQMATNVNCSSPERHTRSYDYMEGGDIRVRRLFCRTQWYLRIDKRGKVKGTQEMKNNYNIMEIRTVAVGIVAIKGVESEFYLAMNKEGKLYAKKECNEDCNFKELILENHYNTYASAKWTHNGGEMFVALNQKGIPVRGKKTKKEQKTAHFLPMAIT", "values": [{"measurement": "increase in expression of the 48 bp Col2a1 enhancer", "setting": "[1]; 200 ng/ml added to transfected SW1353 cultures", "value": "no effect"}]}, {"molecule": "BMP-6: BMP growth factor (protein, UniProt P22004 375-513, looked up) Bone morphogenetic protein 6: SASSRRRQQSRNRSTQSQDVARVSSASDYNSSELKTACRKHELYVSFQDLGWQDWIIAPKGYAANYCDGECSFPLNAHMNATNHAIVQTLVHLMNPEYVPKPCCAPTKLNAISVLYFDDNSNVILKKYRNMVVRACGCH", "values": [{"measurement": "effect on Sox9 activity / responsiveness of SW1353 cells transfected with the 48 bp Col2a1 enhancer", "setting": "[1]", "value": "unresponsive"}]}, {"molecule": "BMP-4: BMP growth factor (protein, UniProt P12644 293-408, looked up) Bone morphogenetic protein 4: SPKHHSQRARKKNKNCRRHSLYVDFSDVGWNDWIVAPPGYQAFYCHGDCPFPLADHLNSTNHAIVQTLVNSVNSSIPKACCVPTELSAISMLYLDEYDKVVLKNYQEMVVEGCGCR", "values": [{"measurement": "effect on Sox9 activity / responsiveness of SW1353 cells transfected with the 48 bp Col2a1 enhancer", "setting": "[1]", "value": "unresponsive"}]}]}
